Target: T1, guanylate cyclase (Oryctolagus cuniculus, UniProt G1TXB5)
T1 sequence (G1TXB5 28-1056): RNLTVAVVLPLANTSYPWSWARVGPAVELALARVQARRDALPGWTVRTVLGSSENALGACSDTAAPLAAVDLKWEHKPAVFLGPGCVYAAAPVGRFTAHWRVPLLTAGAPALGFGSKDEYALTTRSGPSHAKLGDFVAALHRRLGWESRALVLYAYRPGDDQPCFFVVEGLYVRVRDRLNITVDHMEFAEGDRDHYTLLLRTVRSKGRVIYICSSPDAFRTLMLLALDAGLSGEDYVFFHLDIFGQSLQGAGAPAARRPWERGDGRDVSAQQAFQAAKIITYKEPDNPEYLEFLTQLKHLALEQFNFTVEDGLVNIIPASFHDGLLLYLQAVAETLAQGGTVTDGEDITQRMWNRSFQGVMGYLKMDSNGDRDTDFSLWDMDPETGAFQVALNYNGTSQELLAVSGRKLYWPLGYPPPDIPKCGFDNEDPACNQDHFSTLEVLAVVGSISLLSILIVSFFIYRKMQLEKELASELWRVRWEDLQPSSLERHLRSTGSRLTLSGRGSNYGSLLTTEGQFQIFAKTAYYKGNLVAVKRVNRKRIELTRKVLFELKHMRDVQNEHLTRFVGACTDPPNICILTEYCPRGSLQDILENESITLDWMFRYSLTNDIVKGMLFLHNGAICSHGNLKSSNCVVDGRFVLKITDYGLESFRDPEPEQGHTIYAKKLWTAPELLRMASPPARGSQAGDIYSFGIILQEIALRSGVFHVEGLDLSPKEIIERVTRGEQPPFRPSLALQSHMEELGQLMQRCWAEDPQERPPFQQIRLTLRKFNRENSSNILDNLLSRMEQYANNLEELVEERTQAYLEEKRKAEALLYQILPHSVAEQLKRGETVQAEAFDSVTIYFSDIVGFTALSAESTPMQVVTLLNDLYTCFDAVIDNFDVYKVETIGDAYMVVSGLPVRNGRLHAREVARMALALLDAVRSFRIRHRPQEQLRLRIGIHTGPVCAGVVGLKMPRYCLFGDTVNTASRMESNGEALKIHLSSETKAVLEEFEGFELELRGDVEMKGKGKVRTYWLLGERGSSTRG
Test: Atriopeptin-activated guanylate cyclase in ciliary process membrane (P1) fractions
Type: biochemical, rabbit
Parameters: tissues were homogenized (10 mg wet weight per milliliter); from tissue; host or cells: rabbit cerebral microvessels, choroid plexus, kidney, ciliary process, pia-arachnoid, cerebellum; 100,000 g P1 pellet
Conditions: mean ± range of duplicate determinations
Protocol: Ciliary process tips were obtained from male, 3-4 kg, New Zealand white rabbits, immediately following sacrifice with an overdose of ether, as described in Nathanson, Invest. Ophthal. Vis. Sci., 21:7981 (1982). The tissue was minced and homogenized (10 mg/ml) by hand in a glass-glass homogenizer in a buffer consisting of 50 mM Tris HCl, pH 8.0; 1mM EDTA, and 250mM sucrose. The homogenate was diluted 30-fold with buffer and centrifuged at 100,000 x g, to obtain a P1 fraction. The pellet was rehomogenized in the original volume and left on ice until use. P1 fractions were also prepared from wedges of rabbit kidney taken from the same animals. In some experiments, P1 fractions were prepared from iris and from ciliary body, as described in Nathanson, Proc. Natl. Acad. Sci. USA, 77:7420 (1980). Briefly, iris was removed from its attachment to the ciliary body, cleaned of adhering ciliary process tissue, washed, and homogenized as above. The ciliary muscle was cleaned of most remaining ciliary process tissue, freed from the underlying sclera by blunt and sharp dissection, and then washed and homogenized.
Atriopeptin-activated guanylate cyclase activity was measured as the rate of conversion of GTP to cyclic GMP. […]
For RIA, each tube contained (in 0.5ml), 50mM sodium acetate buffer (pH 6.2), 2mM EDTA, 1mg/ml bovine serum albumin, 0.1 ml of sample (or diluted sample), 8,000-15,000 cpm (about 5 fmole) of ¹²⁵I succinyl cyclic GMP tyrosine methyl ester, and antibody to bind 25-35% of the label. […] Activation constants (Ka) were determined from dose-response curves utilizing 12-14 data points (6-7 concentrations of hormone, in duplicate), each point representing the mean of triplicate RIA determinations.
Atriopeptin-activated guanylate cyclase activity was measured, as described in Example 5, in membranes from rabbit kidney and ciliary process prepared as in Example 4. […]

| Substance | Vmax Stimulation (%) of Guanylate Cyclase Ciliary Process [%] |
| --- | --- |
| Ser-Leu-Arg-Arg-atriopeptin III (APIII) [rANP 1-28] | 124 ± 5 |
| rANP 13-28 (DRIGAQSGLGCNSFRY; Atrial natriuretic peptide; UniProt P01161 135-150, looked up, fragment) | 51 ± 5 |
